# Assay results reported in patent US12581252B2, “Substituted pyrrolo[3,4-b]pyridines as PI3K-α inhibitors” (Relay Therapeutics, Inc., priority 2020, dated 2026).
# Assays:
# [1] = target: H1047R PIK3CA enzyme (Homo sapiens, UniProt P42336, H1047R); assay: ADP-Glo Biochemical PIK3CA Kinase Assay
# [2] = cells; conditions: Homo sapiens, MCF-10A, read-out: MCF10A IC50
# Chain of H1047R PIK3CA enzyme (P42336 whole entry H1047R): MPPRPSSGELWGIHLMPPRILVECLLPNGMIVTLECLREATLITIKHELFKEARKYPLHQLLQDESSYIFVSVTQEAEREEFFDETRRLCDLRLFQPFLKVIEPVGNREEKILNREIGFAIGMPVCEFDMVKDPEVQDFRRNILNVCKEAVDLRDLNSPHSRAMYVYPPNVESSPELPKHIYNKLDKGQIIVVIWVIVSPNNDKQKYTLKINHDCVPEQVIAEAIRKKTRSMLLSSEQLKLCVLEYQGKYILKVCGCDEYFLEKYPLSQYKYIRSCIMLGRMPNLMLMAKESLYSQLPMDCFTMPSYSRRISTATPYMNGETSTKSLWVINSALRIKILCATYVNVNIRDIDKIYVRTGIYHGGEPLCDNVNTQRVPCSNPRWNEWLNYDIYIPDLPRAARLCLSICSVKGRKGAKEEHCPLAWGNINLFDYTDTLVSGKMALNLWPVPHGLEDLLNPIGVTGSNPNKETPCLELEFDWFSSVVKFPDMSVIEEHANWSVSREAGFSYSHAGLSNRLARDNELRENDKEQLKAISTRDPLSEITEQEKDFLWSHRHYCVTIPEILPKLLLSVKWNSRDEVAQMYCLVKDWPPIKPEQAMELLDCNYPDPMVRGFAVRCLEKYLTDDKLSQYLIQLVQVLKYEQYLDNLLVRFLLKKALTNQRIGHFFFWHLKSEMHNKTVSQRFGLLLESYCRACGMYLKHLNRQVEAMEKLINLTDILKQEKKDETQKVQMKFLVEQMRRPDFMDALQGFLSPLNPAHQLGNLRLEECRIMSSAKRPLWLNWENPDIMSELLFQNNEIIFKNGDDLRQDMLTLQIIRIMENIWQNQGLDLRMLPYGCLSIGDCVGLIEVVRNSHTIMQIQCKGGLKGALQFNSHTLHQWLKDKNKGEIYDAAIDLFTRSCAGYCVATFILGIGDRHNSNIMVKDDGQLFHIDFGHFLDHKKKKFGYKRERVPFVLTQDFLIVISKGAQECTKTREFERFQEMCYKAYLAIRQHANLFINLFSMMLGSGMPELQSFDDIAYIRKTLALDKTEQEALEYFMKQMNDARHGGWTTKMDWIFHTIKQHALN
# Chain of H1047R PIK3CA enzyme (P27986 whole entry partner): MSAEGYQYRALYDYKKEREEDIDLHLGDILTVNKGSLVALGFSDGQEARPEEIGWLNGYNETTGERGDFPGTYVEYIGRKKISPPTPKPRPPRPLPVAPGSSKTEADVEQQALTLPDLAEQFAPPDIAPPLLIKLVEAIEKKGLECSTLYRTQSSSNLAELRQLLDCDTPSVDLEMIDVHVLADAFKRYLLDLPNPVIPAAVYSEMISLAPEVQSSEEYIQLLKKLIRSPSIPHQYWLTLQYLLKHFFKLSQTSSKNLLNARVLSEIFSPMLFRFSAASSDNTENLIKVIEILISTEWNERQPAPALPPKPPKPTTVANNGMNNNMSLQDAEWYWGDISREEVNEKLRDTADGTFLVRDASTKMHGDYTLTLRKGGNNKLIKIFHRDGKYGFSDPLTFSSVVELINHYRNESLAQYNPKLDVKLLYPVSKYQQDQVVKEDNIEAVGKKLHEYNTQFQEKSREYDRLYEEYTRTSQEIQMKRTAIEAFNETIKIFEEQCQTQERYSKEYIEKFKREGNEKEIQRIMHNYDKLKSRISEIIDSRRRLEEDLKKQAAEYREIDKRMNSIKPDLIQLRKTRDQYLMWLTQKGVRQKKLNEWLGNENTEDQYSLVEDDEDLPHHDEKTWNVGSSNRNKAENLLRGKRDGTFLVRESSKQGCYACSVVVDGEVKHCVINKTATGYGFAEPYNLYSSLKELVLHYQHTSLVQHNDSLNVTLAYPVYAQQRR
SMILES,IC50 [1],IC50 [2]
"Cc1ccccc1C1NC(=O)c2cccc(NC(=O)N3CCc4ccccc43)c21 (centres unmarked) [Compound I-43, N-[3-(2-methylphenyl)-1-oxo-2,3-dihydro-1H-isoindol-4-yl]-2,3-dihydro-1H-indole-1-carboxamide]",≤ 0.1 µM,1 to 5 µM
Cc1ccccc1C1NC(=O)c2cc(Br)cc(NC(=O)c3cc(F)cc(C(F)(F)F)c3)c21 (centres unmarked) [Compound I-54],0.1 to 0.5 µM,1 to 5 µM
Cc1ccccc1[C@@H]1NC(=O)c2cccc(NC(=O)c3csc4ccccc34)c21 [Compound I-5],≤ 0.1 µM,1 to 5 µM
"O=C1N[C@H](c2cc(F)ccc2Cl)c2c(NC(=O)N3C[C@H](O)c4cc(F)ccc43)cc(-n3ccnn3)cc21 (single isomer, unassigned) [Compound I-2369]",≤ 0.1 µM,1 to 5 µM
O=C(Nc1cc(-c2cncnc2)cc2c1[C@H](c1cc(F)ccc1Cl)NC2=O)c1cc(F)cc(C(F)(F)F)c1 [Compound I-1095],≤ 0.1 µM,< 1 µM
O=C(Nc1cc(N2CCn3ncnc3C2)cc2c1C(c1cc(F)ccc1Cl)NC2=O)c1cc(F)cc(C(F)(F)F)c1 (centres unmarked) [Compound I-1040],≤ 0.1 µM,1 to 5 µM
O=C(Nc1cc(-c2cccc3cnccc23)cc2c1C(c1cc(F)ccc1Cl)NC2=O)c1cc(F)cc(C(F)(F)F)c1 (centres unmarked) [Compound I-902],≤ 0.1 µM,< 1 µM
"O=C1N[C@H](c2cc(F)ccc2Cl)c2c(NC(=O)N3C[C@](O)(C(F)(F)F)c4cc(F)ccc43)ccc(Cl)c21 (single isomer, unassigned) [Compound I-2618]",≤ 0.1 µM,< 1 µM
"CNc1cc(NC(=O)N2C[C@@](O)(C(F)(F)F)c3cc(F)ccc32)c2c(c1)C(=O)N[C@@H]2c1cc(F)ccc1Cl (single isomer, unassigned) [Compound I-2640]",≤ 0.1 µM,< 1 µM
Nc1cc(NC(=O)c2cc(F)cc(C(F)(F)F)c2)c2c(c1)C(=O)NC2c1cc(F)ccc1Cl (centres unmarked) [Compound I-125],≤ 0.1 µM,< 1 µM
"O=C1N[C@@H](c2cc(F)ccc2Cl)c2c(NC(=O)N3C[C@@H](O)c4cc(F)c(F)cc43)cccc21 (single isomer, unassigned) [Compound I-2293]",≤ 0.1 µM,< 1 µM
O=C(Nc1cc(-c2cccc3nonc23)cc2c1C(c1cc(F)ccc1Cl)NC2=O)c1cc(F)cc(C(F)(F)F)c1 (centres unmarked) [Compound I-1031],≤ 0.1 µM,< 1 µM
O=C(Nc1cc(-c2cccc3nccn23)cc2c1C(c1cc(F)ccc1Cl)NC2=O)c1cc(F)cc(C(F)(F)F)c1 (centres unmarked) [Compound I-1013],≤ 0.1 µM,< 1 µM
"O=C1N[C@@H](c2cc(F)ccc2Cl)c2c(NC(=O)N3C[C@@](O)(C(F)(F)F)c4ccccc43)cccc21 (single isomer, unassigned) [Compound I-2386]",≤ 0.1 µM,< 1 µM
"O=C1N[C@@H](c2cc(F)ccc2Cl)c2c(NC(=O)N3CCc4cc(F)ccc43)cc(-c3cnn(C(F)F)c3)cc21 (single isomer, unassigned) [Compound I-2357]",≤ 0.1 µM,< 1 µM
Cn1ccc(Nc2cc(NC(=O)c3cc(F)cc(C(F)(F)F)c3)c3c(c2)C(=O)N[C@H]3c2cc(F)ccc2Cl)n1 [Compound I-1071],≤ 0.1 µM,< 1 µM
"O=C1N[C@H](c2cc(F)ccc2Cl)c2c(NC(=O)N3C[C@@](O)(C(F)(F)F)c4cc(F)ccc43)cc(N3CCCC3=O)cc21 (single isomer, unassigned) [Compound I-2665]",≤ 0.1 µM,< 1 µM
O=C1N[C@@H](c2cc(F)ccc2Cl)c2c(NC(=O)c3csc4ccccc34)cc(-c3ccc4ncnn4c3)cc21 [Compound I-1684],≤ 0.1 µM,< 1 µM
CC(C)(O)c1cc(NC(=O)c2nsc3ccccc23)c2c(c1)C(=O)N[C@H]2c1cc(F)ccc1Cl [Compound I-192],≤ 0.1 µM,< 1 µM
"O=C1N[C@H](c2cc(F)ccc2Cl)c2c(NC(=O)N3C[C@@H](O)c4cc(F)ccc43)cc(Cl)cc21 (single isomer, unassigned) [Compound I-2402]",≤ 0.1 µM,< 1 µM
O=C(Nc1cc(-c2ccc3ncnn3c2)cc2c1[C@H](c1cc(F)ccc1Cl)NC2=O)c1cc(F)cc(OC(F)(F)F)c1 (stereo in doubt) [Compound I-1111],≤ 0.1 µM,< 1 µM
Cn1nccc1Nc1cc(NC(=O)c2cc(F)cc(C(F)(F)F)c2)c2c(c1)C(=O)NC2c1cc(F)ccc1Cl (centres unmarked) [Compound I-922],≤ 0.1 µM,< 1 µM
O=C(Nc1cc(Br)cc2c1C(c1cc(F)ccc1C(F)(F)F)NC2=O)c1cc(F)cc(C(F)(F)F)c1 (centres unmarked) [Compound I-1014],≤ 0.1 µM,< 1 µM
Nc1cc(NC(=O)c2cc(F)cc(C(F)(F)F)c2)c2c(c1)C(=O)NC2c1cc(F)ccc1C(F)F (centres unmarked) [Compound I-289],≤ 0.1 µM,< 1 µM
O=C1NCc2cc(-c3cc(NC(=O)c4cc(F)cc(C(F)(F)F)c4)c4c(c3)C(=O)NC4c3cc(F)ccc3Cl)ccc2O1 (centres unmarked) [Compound I-981],≤ 0.1 µM,< 1 µM

SMILES,IC50 [1],IC50 [2]
"O=C(Nc1cc(NC2=N[C@H](C(F)(F)F)CO2)cc2c1[C@H](c1cc(F)ccc1Cl)NC2=O)c1cc(F)cc(C(F)(F)F)c1 (single isomer, unassigned) [Compound I-2387]",≤ 0.1 µM,1 to 5 µM
Cn1ccc(-c2cc(NC(=O)c3cc(F)cc(C(F)(F)F)c3)c3c(c2)C(=O)NC3c2cc(F)ccc2Cl)n1 (centres unmarked) [Compound I-947],≤ 0.1 µM,< 1 µM
"O=C1N[C@@H](c2cc(F)ccc2Cl)c2c(NC(=O)N3C[C@@](O)(C(F)(F)F)c4cc(F)ccc43)cc(Cl)cc21 (single isomer, unassigned) [Compound I-2513]",≤ 0.1 µM,< 1 µM
O=C(Nc1cc(-c2ccc(=O)n(C3CC3)c2)nc2c1[C@H](c1cc(F)ccc1Cl)NC2=O)c1cc(F)cc(C(F)(F)F)c1 [Compound I-747],≤ 0.1 µM,< 1 µM
COCCc1cc(NC(=O)c2cc(F)cc(C(F)(F)F)c2)c2c(c1)C(=O)NC2c1cc(F)ccc1Cl (centres unmarked) [Compound I-1020],≤ 0.1 µM,< 1 µM
Cc1nc2ccc(-c3cc(NC(=O)c4cc(F)cc(C(F)(F)F)c4)c4c(c3)C(=O)NC4c3cc(F)ccc3Cl)cc2o1 (centres unmarked) [Compound I-984],≤ 0.1 µM,< 1 µM
"O=C1N[C@@H](c2cc(F)ccc2Cl)c2c(NC(=O)N3C[C@@](O)(C(F)(F)F)c4ccccc43)cc(Cl)cc21 (single isomer, unassigned) [Compound I-2509]",≤ 0.1 µM,< 1 µM
Cn1nccc1-c1cc(NC(=O)c2cc(F)cc(C(F)(F)F)c2)c2c(c1)C(=O)NC2c1cc(F)ccc1Cl (centres unmarked) [Compound I-906],≤ 0.1 µM,< 1 µM
O=C1N[C@H](c2ccccc2Cl)c2c(NC(=O)c3csc4ccccc34)ccnc21 [Compound I-33],0.1 to 0.5 µM,1 to 5 µM
"O=C1N[C@H](c2cc(F)ccc2Cl)c2c(NC(=O)N3C[C@H](O)c4c3ccc(F)c4F)cccc21 (single isomer, unassigned) [Compound I-2310]",≤ 0.1 µM,< 1 µM
O=C(Nc1cc(-c2ccc3nccn3n2)cc2c1C(c1cc(F)ccc1Cl)NC2=O)c1cc(F)cc(C(F)(F)F)c1 (centres unmarked) [Compound I-905],≤ 0.1 µM,< 1 µM
"O=C(Nc1cc(-c2cn3ncnc3cn2)cc2c1[C@H](c1cc(F)ccc1C(F)F)NC2=O)c1cc(F)cc(Cl)c1 (single isomer, unassigned) [Compound I-2259]",≤ 0.1 µM,< 1 µM
O=C1NC(c2cc(F)ccc2Cl)c2c(NC(=O)N3CC(O)c4ccc(Cl)cc43)cccc21 (mixture of isomers) [Compound I-2464],≤ 0.1 µM,5 to 10 µM
Nc1ncc(-c2cc(NC(=O)c3cc(F)cc(C(F)(F)F)c3)c3c(c2)C(=O)N[C@@H]3c2cc(F)ccc2Cl)cn1 (stereo in doubt) [Compound I-1003],≤ 0.1 µM,< 1 µM
O=C(Nc1cc(-c2cn[nH]c2)cc2c1[C@H](c1cc(F)ccc1Cl)NC2=O)c1cc(F)cc(C(F)(F)F)c1 [Compound I-1078],≤ 0.1 µM,< 1 µM
"C[C@]1(O)CN(C(=O)Nc2cccc3c2[C@H](c2cc(F)ccc2Cl)NC3=O)c2ccccc21 (single isomer, unassigned) [Compound I-2205]",≤ 0.1 µM,< 1 µM
O=C(Nc1cc(-c2cc3ccccc3[nH]2)cc2c1C(c1cc(F)ccc1Cl)NC2=O)c1cc(F)cc(C(F)(F)F)c1 (centres unmarked) [Compound I-971],≤ 0.1 µM,< 1 µM
"O=C1N[C@@H](c2cc(F)ccc2Cl)c2c(NC(=O)N3C[C@](O)(C(F)(F)F)c4cc(F)ccc43)ccc(-n3cccn3)c21 (single isomer, unassigned) [Compound I-2497]",≤ 0.1 µM,< 1 µM
"N#CCc1cc(NC(=O)N2C[C@@H](O)c3cc(F)ccc32)c2c(c1)C(=O)N[C@H]2c1cc(F)ccc1Cl (single isomer, unassigned) [Compound I-2537]",≤ 0.1 µM,< 1 µM
"O=C1N[C@H](c2cc(F)ccc2Cl)c2c(NC(=O)N3C[C@@](O)(C(F)(F)F)c4cc(F)ccc43)cc(-n3nccn3)cc21 (single isomer, unassigned) [Compound I-2569]",≤ 0.1 µM,< 1 µM
O=C1N[C@@H](c2cc(F)ccc2Cl)c2c(NC(=O)[C@H]3CCC[C@@H](C(F)(F)F)C3)cc(-c3ccc4ncnn4c3)cc21 [Compound I-2029],≤ 0.1 µM,< 1 µM
Cn1ccc(-c2cc(NC(=O)c3cc(F)cc(C(F)(F)F)c3)c3c(c2)C(=O)N[C@@H]3c2cc(F)ccc2Cl)cc1=O (stereo in doubt) [Compound I-1002],≤ 0.1 µM,< 1 µM
N#CCOc1cc(NC(=O)c2cc(F)cc(C(F)(F)F)c2)c2c(c1)C(=O)NC2c1cc(F)ccc1Cl (centres unmarked) [Compound I-1160],≤ 0.1 µM,< 1 µM
O=C(Nc1cc(-c2cccc3c2CCNC3=O)cc2c1C(c1cc(F)ccc1Cl)NC2=O)c1cc(F)cc(C(F)(F)F)c1 (centres unmarked) [Compound I-1042],≤ 0.1 µM,< 1 µM
